# Data: US10023841B2, “Methods and compositions for treating breast cancer with dendritic cell vaccines” (Baylor Research Institute, priority 2014, dated 2018)
# The star is where a group is joined. Cbz = O=C(OCc1ccccc1)*; CH2F = FC*
# T1: TAK1 (Homo sapiens, UniProt O43318)
# T1 construct: endogenous in cells; host or cells: human blood monocytes, monocyte-derived DCs and blood mDCs
# T1 sequence (O43318 1-606): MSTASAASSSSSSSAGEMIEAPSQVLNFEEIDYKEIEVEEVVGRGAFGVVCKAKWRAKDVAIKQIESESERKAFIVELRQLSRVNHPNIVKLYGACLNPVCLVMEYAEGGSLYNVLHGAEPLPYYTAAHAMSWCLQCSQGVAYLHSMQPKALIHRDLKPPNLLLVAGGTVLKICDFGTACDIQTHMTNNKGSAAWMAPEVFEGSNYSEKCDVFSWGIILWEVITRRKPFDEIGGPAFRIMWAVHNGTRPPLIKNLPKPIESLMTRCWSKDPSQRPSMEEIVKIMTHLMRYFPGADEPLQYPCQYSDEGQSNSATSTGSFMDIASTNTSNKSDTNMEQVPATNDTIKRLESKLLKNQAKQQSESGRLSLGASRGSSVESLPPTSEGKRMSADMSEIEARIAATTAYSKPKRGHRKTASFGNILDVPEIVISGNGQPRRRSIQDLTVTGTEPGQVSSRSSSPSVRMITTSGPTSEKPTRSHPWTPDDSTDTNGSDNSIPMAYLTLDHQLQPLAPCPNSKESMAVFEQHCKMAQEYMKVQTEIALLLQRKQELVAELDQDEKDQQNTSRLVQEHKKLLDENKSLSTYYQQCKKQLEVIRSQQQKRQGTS
# T2: caspase-1 (Homo sapiens, UniProt P29466)
# T2 construct: MDA-MB231 cells and mDCs were co-cultured in chamber well; endogenous in cells; host or cells: human blood mDCs co-cultured with MDA-MB231 cells
# T2 sequence (P29466 120-297 limits assumed): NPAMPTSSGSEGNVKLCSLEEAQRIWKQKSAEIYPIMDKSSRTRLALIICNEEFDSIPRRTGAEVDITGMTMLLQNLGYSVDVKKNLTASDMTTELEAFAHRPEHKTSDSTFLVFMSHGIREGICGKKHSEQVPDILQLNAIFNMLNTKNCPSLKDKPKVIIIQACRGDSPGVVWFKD
# T2 sequence (P29466 317-404 limits assumed): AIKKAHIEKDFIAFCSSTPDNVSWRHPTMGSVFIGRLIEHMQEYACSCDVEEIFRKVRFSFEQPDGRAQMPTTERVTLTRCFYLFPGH
# Columns and labels:
# TAK1 [1] = target: T1, TAK1; assay: Caspase-1 activity (FACS) in monocytes treated with cancer-culture sups; format: cell-based; details: monocytes treated with cancer-culture sups 16 hours; 200 nm TAK1 inhibitor
# Protocol: For surface staining, cells were incubated with the antibodies for 30 minutes at 4° C. in the dark, then washed three times and fixed with 1% paraformaldehyde to be analyzed in a FACS Canto (Becton Dickinson). […] For caspase-1 staining, cells were incubated with substrates (CaspaLux-E1D2, Oncolmmunin, Inc.) for 50 minutes at 37° C. and washed with washing buffer 2 times, then stained for surface markers for 10 minutes at room temperature.
# Monocytes were treated with cancer-culture sups for 16 hours in the presence of a TAK1 specific inhibitor or DMSO as control. Caspase-1 activity was measured using the FACS based method. Cells were gated based on CD11c^+ viable cells.
# TAK1 [2] = target: T1, TAK1; assay: IL-1β in co-culture of cancer cells and myeloid cells upon TAK1 inhibition; format: cell-based
# Protocol: When mDCs were co-cultured with MDA-MB231 cells for 5-90 minutes, phosphorylated (p)TAK1 could only be detected after 60 minutes (FIG. 7D). To confirm that the phosphorylation of TAK1 is TGF-β mediated, TGF-β signaling blocking reagents (TGF-β neutralizing antibody and TGF-βR kinase inhibitor) were added to the co-culture of cancer cells and mDCs. […] To examine whether TAK1-signaling participate in modulation of IL-1β production, a co-culture of cancer cells and myeloid cells was used. […]
# [3] = system: Hs-578t breast cancer cells; assay: Tumor growth of Hs-578t xenograft in irradiated NOD/SCID/β2m−/− mice reconstituted with DCs and T cells; format: in vivo
# Protocol: (§1) NOD/SCID/β2 m^−/− mice ([…]) were sublethally irradiated (12 cGy/g body weight of 137Cs γ irradiation) the day before tumor implantation. Then 10 million Hs-578t breast cancer cells harvested from cultures were injected subcutaneously into the flanks. Mice were then reconstituted with 1 million monocyte-derived DCs (MDDCs) and autologous T cells. CD4^+ and CD8^+ T cells were positively selected from thawed PBMCs using magnetic selection according to the manufacturer's instructions (Miltenyi Biotec). The purity was routinely >90%. 10 million CD4^+ T cells and 10 million CD8^+ T cells were transferred at days 3, 6, and 9 after tumor implantation. MDDCs were generated from the adherent fraction of PBMCs by culturing with 100 ng/ml GM-CSF and 10 ng/ml IL-4 (R&D Systems). Anakinra (2 mg/kg body weight) or PBS were injected daily in peritumor area since day 3 after tumor engraftment. 200 ug TSLPR blocking antibody was given on day 3,6,9. In some experiments, TGF-13 blocking antibody was given on day 3,6,9. Tumor size was monitored every 2-3 d. Tumor volume (ellipsoid) was calculated as follows: ([short diameter]^2×long diameter)/2. On day 16, the tumors were harvested. In some experiments, only one time DCs and total T cells transfer was done. Cell suspension was obtained from breast cancer tissue of above mice. Cell suspensions were obtained by digestion with 2.5 mg/ml of collagenase D (Roche Diagnostics, Indianapolis, Ind.), and 200 U/ml of DNAse I (Sigma-Aldrich, St. Louis, Mo.) for 30 minutes at 37° C. Washed three times and analyzed with FACS-CantoII (Becton Dickinson).
# Thus, involvement of IL-1β in the TSLP-dependent in vivo model was evaluated. The availability of IL-1β in the xenograft mice model was first evaluated. HS-578t cells were injected subcutaneously into the flank of irradiated NOD/SCID/β2 m^−/− mice. MDDCs plus autologous total T cells were injected intratumorally on D3,6, and 9 after tumor cells injection (FIG. 15A). When tumors grew to 100-150 mm^3 in volume, mice were sacrificed and tumors were frozen in OCT for tissue staining. Similar with what observed in patient primary tumors (FIG. 5), IL-1β^+ cells also infiltrated in the tumor of xenograft model (FIG. 15B). […] Then we tried to understand whether TGF-β or IL-1β blocking could affect tumor growth through affecting the availability of IL-1β. Anti-TGF-β neutralizing antibody, isotype antibody as control, IL-1R antagonist Anakinra, or anti-TSLPR neutralizing antibody were each injected together with DC plus T cells (FIG. 15A). […] In some experiments, small pieces of tumor tissue from mice were cultured for 16 hours in the presence of PMA and ionomycin. Th2 cytokines were measured by Luminex in the culture sups (FIG. 8B).
# Th2 cytokines = assay: Cytokines by Luminex in supernatants of day 16 mouse tumor fragments stimulated with PMA and ionomycin; format: in vivo, mice; details: day 16 tumors; versus PBS group
# Protocol: as §1
# Thus, involvement of IL-1β in the TSLP-dependent in vivo model was evaluated. The availability of IL-1β in the xenograft mice model was first evaluated. HS-578t cells were injected subcutaneously into the flank of irradiated NOD/SCID/β2 m^−/− mice. MDDCs plus autologous total T cells were injected intratumorally on D3,6, and 9 after tumor cells injection (FIG. 15A). […] Th2 cytokines were measured by Luminex in the culture sups (FIG. 8B).
# CD4^+CD3^+T cells = assay: Intracellular cytokine FACS of CD4+CD3+ T cells from xenograft tumors; format: in vivo, mice
# Protocol: as §1
# To confirm whether the decreased IL-13 level is due to less infiltration of IL-13 producing cells, single cell suspensions were prepared from the tumors harvested from both the PBS and the Anakinra treatment groups. Intracellular staining for cytokines including IL-13, IL-4, TNF-α, and IFN-γ were combined with CD4, CD3 surface staining. Cells were analyzed by FACS, and gated on viable CD4^+CD3^+T cells. […] In the PBS group, about 10.2-46.4% of CD4^+CD3^+T cells express IL-13. […]
# [4] = pediatric patients with SOJIA; cited from earlier work
# [5] = 100 mg daily SC; cited from earlier work
# caspase-1 = target: T2, caspase-1; assay: MDA-MB231/mDC co-culture with caspase-1 inhibitor: proIL-1β and mature IL-1β staining; format: cell-based
# Protocol: In most cases, caspase-1 is needed for proteolytic cleavage and secretion of mature IL-1β. It was tested whether TGF-β-dependent IL-1β production also required the activation of caspase-1. MDA-MB231 cells and mDCs were co-cultured in chamber well in presence of 1 uM of caspase-1 inhibitor or DMSO as vehicle control. 18 hours later, cells were fixed and stained with specific antibody against pro-peptide of IL-1β (FIG. 7A), or mature IL-1β (FIG. 7B), both accompanied with HLA-DR staining. […] Four areas were counted for the percentage of proIL-1β^+ cells within HLA-DR^+ cells for both DMSO or caspase-1 inhibitor treated wells. Almost 95% of mDCs show accumulation of proIL-1β intracellularly, while only around 50% of mDCs express proIL-1β (FIG. 7A right panel). Using a similar experimental system, mature IL-1β production in presence or absence of caspase-1 inhibitor was also measured.
# [6] = system: HS-578t or MDA-MB231 cells; assay: TSLP induction in breast cancer cell lines by cytokines (real-time PCR, Luminex); format: cell-based, human; details: for TSLP mRNA level by quantitative real-time PCR: HS-578t and MDA-MB231 cells, 10 ng/ml, as early as 2 hours
# Protocol: […] For tumor cells and mDCs coculture experiment, 100 k tumor cells were seeded in 24 well plate to grow overnight, then media was refreshed and 100 k mDCs were added to coculture for another 24-72 h. For the transwell experiment, 24-well-plate with inserts were used (Corning). 200K tumor cells were seeded in the plate to grow at least overnight, then 200 k mDCs were added into inserts. After 48 h of co-culture, supernantants were harvested to determine IL-1β level by ELISA (Duoset, R&D System).
# Samples were treated and lysed with Buffer RLT, and then stored at −80° C. until RNA extraction. Total RNA was isolated and purified from each sample by using RNeasy kit and RNase-free DNase (Qiagen) according to the manufacturer's instructions. cDNA was generated from total RNA with iScript™ cDNA Synthesis Kit. The resulting cDNA was then used for quantitative gene expression analysis on a Sequence Detection System 7,500 (Applied Biosystems). The primers used were as follows: human (h)TSLP, 5′-[…]-3′ (SEQ ID NO:41) and 5′-[…]-3 (SEQ ID NO:42), and human (h)IL-1β, 5′-[…]-3′ (SEQ ID NO:43) and 5′-[…]-3′ (SEQ ID NO:44), human (h) GAPDH, 5′-[…]-3′ (SEQ ID NO:45) and 5′-[…]-3′ (SEQ ID NO:46), human (h) ABL1, 5′-[…]-3′ (SEQ ID NO:47) and 5′ […]-3′ (SEQ ID NO:48), human (h) PGK1, 5′-[…]-3′ (SEQ ID NO:49) and 5′-[…]-3′ (SEQ ID NO:50), human (h) PES1, 5′-[…]-3′ (SEQ ID NO:51) and 5′-A […]-3′ (SEQ ID NO:52). Equal amounts of cDNA were used with the iTaq SYBR Green Supermix with ROX (Bio-Rad) and primer mix according to the real-time PCR protocols supplied by the manufacturer. Amplification efficiencies were validated against the housekeeping gene, GAPDH, PES1, and ABL1. […] The relative quantification of target gene expression was done by the comparative cycle threshold (CT) method. […]
# Different pro-inflammatory cytokines have the potential to induce TSLP from keratinocytes, both transcriptionally and translationally. […] Cells were harvested and TSLP mRNA levels were measured by quantitative real-time PCR (FIG. 4A). […] TSLP levels in the culture supernatants were determined by Luminex. […]
# [7] = xenograft model, summary statement
# [8] = tumors harvested from Anakinra treatment group
molecule,measurement,setting,value
"COc1cc(O)c2c(c1)/C=C/C[C@H](O)[C@H](O)C(=O)/C=C\C[C@H](C)OC2=O [TAK1 inhibitor, 5z-7-oxozeaenol]",activation of caspase-1 in monocytes,TAK1 [1],prevented the activation of caspase-1
same,IL-1β levels in co-culture supernatants (Luminex),"TAK1 [2]; cancer cells with monocytes, MDDC or mDC, 48 hours",Substantially lower amounts of IL-1β were secreted
same,expression of IL-1β by mDCs and monocytes (intracellular staining),TAK1 [2]; co-culture 16 hours,prevented the expression of IL-1β by mDCs and monocytes
Anakinra: recombinant soluble non-glycosylated homolog of the human interleukin-1 receptor antagonist (IL-1Ra),tumor volume (mean),"[3]; day 16, Anakinra 2 mg/kg daily peritumoral since day 3",13 mm^3
same,tumor volume increase in PBS group compared to the Anakinra group,"[3]; end of the observation, day 16",~10 fold
same,OX40L+ expression on DCs,[3]; in vivo,blocks OX40L+ expression on DCs
same,tumor growth in vivo,[3]; [7],prevents tumor growth in vivo
same,IL-4 in tumor tissue culture sups,Th2 cytokines,less IL-4
same,IL-13 in tumor tissue culture sups,Th2 cytokines,less IL-13
same,TSLP production in tumor tissue,Th2 cytokines,less TSLP production
same,CD4^+CD3^+T cells expressing IL-13,CD4^+CD3^+T cells; [8],0.39-2.5%
same,effect on TNF-α and IFN-γ in CD4^+CD3^+T cells,CD4^+CD3^+T cells; [8],no specific effect on TNF-α and IFN-γ
same,iTh2 generation in vivo,CD4^+CD3^+T cells; [7],blocks iTh2 generation in vivo
same,patients with remarkable clinical and hematological responses,[4],> 70 % of patients
same,most common adverse reaction,[5],injection site reaction
same,safety profile,[5],favorable safety profile
Cbz-WEHD-CH2F [caspase-1 inhibitor],percentage of proIL-1β+ cells within HLA-DR+ cells,"caspase-1; 1 uM caspase-1 inhibitor, MDA-MB231 cells and mDCs co-cultured 18 hours",~95%
same,mature IL-1β staining,"caspase-1; caspase-1 inhibitor, MDA-MB231 cells and mDCs co-culture",less mature IL-1β was detected
IL-1β: cytokine obtained from R&D,TSLP mRNA level by quantitative real-time PCR,[6],induce significant TSLP transcription
same,TSLP levels in the culture supernatants (Luminex),"[6]; MDA-MB231 cells, different doses, 48 hours",induce TSLP production in a dose-dependent manner
"IL-1α: cytokine obtained from R&D (protein, UniProt P01583 113-271, looked up) Interleukin-1 alpha: SAPFSFLSNVKYNFMRIIKYEFILNDALNQSIIRANDQYLTAAALHNLDEAVKFDMGAYKSSKDDAKITVILRISKTQLYVTAQDEDQPVLLKEMPEIPKTITGSETNLLFFWETHGTKNYFTSVAHPNLFIATKQDYWVCLAGGPPSITDFQILENQA",TSLP mRNA level by quantitative real-time PCR,[6],induce significant TSLP transcription
